Assay results published in the supplement of paper PMC10307832.

Columns and labels:
Test in all cases: relative viability (nuclei count vs DMSO), 5 days (fraction); higher = more cells survive
[1] = compound: CC1CC(=O)N(C2=CN=C(N=C2N1C3CCCC3)NC4=C(C=C(C=C4)C(=O)NC5CCN(CC5)C)OC)C [NPK76-II-72-1] + Cc1nc(Nc2ncc(C(=O)Nc3c(C)cccc3Cl)s2)cc(N2CCN(CCO)CC2)n1 [Dasatinib] (partner 0.075 µM)
Outline: (§1)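 Lung cancer cell lines in 1536-well plates were dosed by pin tool the day after seeding, either with one drug alone or with a fixed anchor-drug dose plus five library-drug doses (not always all listed) in √10 steps. After 5 days, cells were fixed and their nuclei stained in one step (final 0.05% Triton X-100, 1% formaldehyde, 1 ug/ml Hoechst), then counted on 4× images. Relative viability is the nuclei count in treated wells divided by that in vehicle wells. Values are medians of duplicate plates.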

[2] = compound: CC1CC(=O)N(C2=CN=C(N=C2N1C3CCCC3)NC4=C(C=C(C=C4)C(=O)NC5CCN(CC5)C)OC)C [NPK76-II-72-1] + Cc1nc(NC(=O)N2CCC[C@H]2C(N)=O)sc1-c1ccnc(C(C)(C)C(F)(F)F)c1 [Alpelisib] (partner 2 µM)
Outline: as §1

BI-2536 + Foretinib = compound: CC[C@@H]1C(=O)N(C)c2cnc(Nc3ccc(C(=O)NC4CCN(C)CC4)cc3OC)nc2N1C1CCCC1 [BI-2536] + COc1cc2c(Oc3ccc(NC(=O)C4(C(=O)Nc5ccc(F)cc5)CC4)cc3F)ccnc2cc1OCCCN1CCOCC1 [Foretinib] (partner 0.25 µM)
Outline: as §1

BI-2536 + Phenformin = compound: CC[C@@H]1C(=O)N(C)c2cnc(Nc3ccc(C(=O)NC4CCN(C)CC4)cc3OC)nc2N1C1CCCC1 [BI-2536] + N=C(N)NC(=N)NCCc1ccccc1 [Phenformin] (partner 250 µM)
Outline: as §1

Cell Line	relative viability ([1]; first compound 0.01 µM)	relative viability ([1]; first compound 0.03162 µM)	relative viability ([1]; first compound 0.1 µM)	relative viability ([1]; first compound 0.3162 µM)	relative viability ([1]; first compound 1 µM)	relative viability ([2]; first compound 0.01 µM)	relative viability ([2]; first compound 0.03162 µM)	relative viability ([2]; first compound 0.1 µM)	relative viability ([2]; first compound 0.3162 µM)	relative viability ([2]; first compound 1 µM)	relative viability (BI-2536 + Foretinib; first compound 0.01 µM)	relative viability (BI-2536 + Foretinib; first compound 0.03162 µM)	relative viability (BI-2536 + Foretinib; first compound 0.1 µM)	relative viability (BI-2536 + Foretinib; first compound 0.3162 µM)	relative viability (BI-2536 + Foretinib; first compound 1 µM)	relative viability (BI-2536 + Phenformin; first compound 0.01 µM)	relative viability (BI-2536 + Phenformin; first compound 0.03162 µM)	relative viability (BI-2536 + Phenformin; first compound 0.1 µM)	relative viability (BI-2536 + Phenformin; first compound 0.3162 µM)	relative viability (BI-2536 + Phenformin; first compound 1 µM)
201T	0.574	0.614	0.52	0.525	0.59	1.02	1.04	1.02	0.999	1.09	1.1	0.896	0.612	0.184	0.212	0.38	0.431	0.276	0.315	0.23
A549	–	–	–	–	–	0.84	0.824	0.889	0.716	0.769	0.962	0.901	0.427	0.0288	0.0231	0.143	0.132	0.0229	0.0377	0.0372
A-427	0.659	0.822	0.688	0.674	0.726	1.08	1.1	1.02	1.09	1.03	1.02	0.919	1.08	0.166	0.148	0.35	0.273	0.151	0.0945	0.134
ABC-1	–	0.578	0.622	0.573	0.614	0.839	0.982	1.11	0.953	1	1.18	0.868	0.711	0.249	0.187	0.307	0.256	0.222	0.196	0.191
BEN	0.33	0.232	0.314	0.345	0.324	0.967	1.05	1.01	1.02	1.09	0.564	0.818	0.361	0.243	0.248	0.262	0.249	0.207	0.231	0.186
CAL-12T	0.369	0.379	0.364	0.319	0.391	1.13	1.15	0.877	1.03	1.27	1.08	0.951	0.503	0.173	0.187	0.543	0.422	0.289	0.134	0.115
COR-L23	0.439	0.533	0.554	0.433	0.526	0.638	0.821	0.815	0.815	0.822	1.04	1.04	0.453	0.128	0.0906	0.434	0.371	0.116	0.0966	0.0886
Calu-6	–	–	–	–	–	0.952	1.03	1.05	0.972	1.14	0.8	0.613	0.281	0.0815	0.0737	–	–	–	–	–
ChaGo-K-1	0.577	0.624	0.505	0.53	0.596	–	–	–	–	–	0.851	0.972	0.687	0.164	0.217	0.492	0.507	0.238	0.158	0.148
EBC-1	–	–	–	–	–	0.927	0.931	0.828	0.836	0.906	0.0994	0.0943	0.0905	0.0859	0.0908	–	–	–	–	–
HCC-44	–	–	–	–	–	0.771	0.854	0.76	0.789	0.809	–	–	–	–	–	0.184	0.242	0.0815	0.1	0.0914
IA-LM	–	–	–	–	–	0.895	0.851	0.657	0.612	0.705	1.24	1.14	0.518	0.0587	0.0439	–	–	–	–	–
NCI-H522	0.77	0.887	1.09	0.86	0.828	–	–	–	–	–	–	–	–	–	–	0.525	0.641	0.404	0.446	0.401
NCI-H1299	–	–	–	–	–	1.09	1.07	1.03	1.05	1.06	1.15	1.09	0.773	0.308	0.242	–	–	–	–	–
NCI-H1623	0.562	0.522	0.554	0.401	0.545	–	–	–	–	–	0.912	0.864	0.83	0.345	0.321	0.564	0.54	0.556	0.445	0.588
NCI-H1650	0.308	0.314	0.405	0.293	0.265	–	–	–	–	–	1.16	1.14	0.484	0.135	0.115	0.425	0.3	0.166	0.141	0.134
NCI-H1703	–	–	–	–	–	0.316	0.343	0.35	0.314	0.4	–	0.296	0.191	0.152	0.14	–	–	–	–	–
NCI-H1792	0.799	–	0.842	0.66	0.726	0.747	0.793	0.668	0.711	0.767	–	–	–	–	–	0.451	0.49	0.301	0.0773	0.0991
NCI-H2342	0.345	0.301	0.328	0.262	0.346	–	–	–	–	–	1.01	0.973	0.976	0.633	0.357	0.547	0.586	0.649	0.283	0.341
SW 900	0.496	0.574	0.378	0.78	0.572	–	–	–	–	–	0.775	0.8	0.983	0.2	0.138	0.683	0.564	0.493	0.106	0.146
